{"source": "patent US5298622A", "about": "“Spiroindane opiate analogs” (priority 1993, dated 1994)", "key": {"[1]": {"system": "rats selectively bred for high voluntary ethanol drinking", "settings": "Ser. No. 07/750,109; cited from earlier work"}, "[2]": {"system": "mouse vas deferens (MVD), delta opioid receptor", "test": "Mouse vas deferens (MVD) assay, agonism", "assay_type": "cell-based", "settings": "% Inhibition at 1000 nM (footnote 4); for inhibition at 1 µM: Mus musculus", "protocol": "(§1) 2. Mouse Vas (MVD). This assay was performed according to the description by G. Henderson et al., Brit. J. Pharmacol., 46, 764 (1972). Both vasa deferentia were dissected out of mice and mounted singly through two platinum ring electrodes in a 10 ml organ bath. The bath contained Krebs bicarbonate solution that was continuously bubbled with 95% O2 and 5% CO2. The organ bath was maintained at 37° C. The tissue was attached to an isometric transducer and stimulated transmurally with rectangular pulses ([…], 1 ms duration, supramaximal voltage). Drugs were added cumulatively to the bath in 10- to 50-μl amounts and washed out after noting their maximum effect.\n(§2) Concentration-response curves were obtained in the absence (control) and the presence of the antagonist are expressed as IC50 values. The IC50 ratio represents the IC50 in the presence of the antagonist divided by the control IC50 value in the same tissue. Therefore, a high IC50 ratio represents a correspondingly high degree of antagonism at a particular receptor. This IC50 ratio was employed to calculate the Ke value using the equation Ke=[antagonist]/(IC50 ratio-1). Therefore, a low Ke represents a correspondingly high degree of binding at a particular receptor."}, "[3]": {"system": "Guinea Pig Ileal Longitudinal Muscle (GPI), mu opioid receptor", "test": "cells", "assay_type": "cell-based", "protocol": "(§3) 1. Guinea Pig Ileal Longitudinal Muscle (GPI). Ilea from guinea pigs were taken approximately 10 cm from the ileocecal junction, and a strip of longitudinal muscle with the myenteric plexus attached was prepared by the method of H. B. Rang et al., Brit. J. Pharmacol., 22, 356 (1964). A 1 cm portion of this strip was then mounted between two platinum electrodes placed in a 10 ml organ bath and connected to an isometric transducer; contractions were recorded on a polygraph. Contractions of the ileal strip were initiated by supramaximal rectangular pulses in all preparations (80 V of 0.5 ms duration at a frequency of 0.1 Hz). Krebs bicarbonate solution containing 1.25 μM chlorpheniramine maleate was the bathing solution and was continuously bubbled with 95% O2 and 5% CO2. The organ bath was maintained at 36°-37° C. The longitudinal muscle strip was allowed to equilibrate with continuous stimulation for a minimum of 90 min. Cumulative concentration-response curves were determined after drugs were added to the bath in 10- to 50-μl amounts and washed out with two 10 ml portions of buffer after noting their maximum effects.\nas §2"}, "[4]": {"biological_target": "T1, kappa opioid receptor (Cavia porcellus, UniProt P41144)", "T1 construct": "a strip of longitudinal muscle with the myenteric plexus attached was prepared; from tissue; host or cells: guinea pig ileum, longitudinal muscle strip with myenteric plexus", "T1 sequence (P41144 whole entry)": "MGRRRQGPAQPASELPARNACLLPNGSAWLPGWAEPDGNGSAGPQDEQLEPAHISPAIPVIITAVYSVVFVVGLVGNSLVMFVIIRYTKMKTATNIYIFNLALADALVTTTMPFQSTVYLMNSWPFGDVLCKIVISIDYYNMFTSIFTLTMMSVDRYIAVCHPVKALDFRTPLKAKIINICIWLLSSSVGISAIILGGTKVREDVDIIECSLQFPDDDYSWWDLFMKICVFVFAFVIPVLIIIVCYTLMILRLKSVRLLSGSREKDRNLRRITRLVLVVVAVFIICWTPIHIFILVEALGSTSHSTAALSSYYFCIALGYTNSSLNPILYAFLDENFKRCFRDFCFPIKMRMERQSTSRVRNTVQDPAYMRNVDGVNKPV", "test": "GPI assay, antagonism of ethylketazocine (EK, kappa)", "assay_type": "cell-based, guinea pig", "settings": "antagonist 100 nM, 15 min; agonist ethylketazocine (kappa)", "protocol": "as §3\nConcentration-response curves were obtained in the absence (control) and the presence of the antagonist are expressed as IC50 values. The IC50 ratio represents the IC50 in the presence of the antagonist divided by the control IC50 value in the same tissue. […]"}, "[5]": {"biological_target": "T2, mu opioid receptor (Cavia porcellus, UniProt A0ACM8Q262)", "T2 construct": "antagonism of morphine", "T2 sequence (A0ACM8Q262 1-400)": "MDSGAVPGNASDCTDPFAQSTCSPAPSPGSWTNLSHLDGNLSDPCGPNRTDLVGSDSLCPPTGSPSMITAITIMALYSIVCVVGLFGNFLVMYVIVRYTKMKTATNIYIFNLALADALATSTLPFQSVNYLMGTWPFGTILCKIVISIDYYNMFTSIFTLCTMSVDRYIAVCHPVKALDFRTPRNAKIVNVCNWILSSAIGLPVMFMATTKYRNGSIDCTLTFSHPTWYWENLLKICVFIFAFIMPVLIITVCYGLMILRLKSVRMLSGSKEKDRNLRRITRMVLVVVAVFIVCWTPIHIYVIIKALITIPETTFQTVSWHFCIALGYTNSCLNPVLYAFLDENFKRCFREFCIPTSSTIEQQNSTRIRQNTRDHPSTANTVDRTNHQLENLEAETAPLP", "test": "GPI assay, antagonism of morphine (mu)", "assay_type": "cell-based, guinea pig", "settings": "antagonist 100 nM, 15 min; for GPI Antagonism IC50 Ratio (Morphine): agonist morphine (mu); for Kb: read-out: GPI Antagonism Ke (Morphine), Ke=[antagonist]/(IC50 ratio-1)", "protocol": "as §3, §2"}, "[6]": {"biological_target": "T3, delta opioid receptor (Mus musculus, UniProt P32300)", "T3 construct": "Both vasa deferentia were dissected out of mice; from tissue; host or cells: mouse vas deferens", "T3 sequence (P32300 whole entry)": "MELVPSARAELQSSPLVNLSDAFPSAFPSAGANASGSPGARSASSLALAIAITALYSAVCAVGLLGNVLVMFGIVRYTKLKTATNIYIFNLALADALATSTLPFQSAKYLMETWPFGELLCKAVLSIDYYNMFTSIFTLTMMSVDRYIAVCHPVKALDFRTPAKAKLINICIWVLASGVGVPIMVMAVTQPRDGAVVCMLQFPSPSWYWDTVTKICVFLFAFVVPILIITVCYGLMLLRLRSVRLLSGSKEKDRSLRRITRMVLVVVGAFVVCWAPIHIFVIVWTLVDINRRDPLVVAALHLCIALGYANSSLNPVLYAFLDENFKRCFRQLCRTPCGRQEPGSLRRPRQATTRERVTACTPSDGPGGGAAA", "test": "MVD assay, antagonism of DADLE (delta)", "assay_type": "cell-based", "settings": "for MVD Antagonism IC50 Ratio (DADLE): antagonist 100 nM, 15 min, agonist DADLE (delta); for Kb: read-out: MVD Antagonism Ke (DADLE); for δ-antagonist activity (in words): δ-selective agonist", "protocol": "as §1, §2"}, "[7]": {"system": "recovering alcoholics", "settings": "J. R. Volpicelli et al. 1990; cited from earlier work"}, "[8]": {"system": "ethanol drinking", "settings": "J. C. Froehlich et al. 1991; cited from earlier work"}, "[9]": {"system": "rat model of alcoholism", "settings": "J. C. Froehlich et al. 1990; cited from earlier work"}, "[10]": {"system": "delta opioid receptor", "settings": "U.S. Pat. No. 4,816,586; cited from earlier work"}, "[11]": {"settings": "GPI, % Inhibition at 1000 nM (footnote 4)"}}, "note": "Non-standard residues stand in square brackets, D forms with d. Residues, ends and D or L forms follow the SMILES beside them. *: point of attachment. Tyr(Nα,Nα-allyl2) = C=CCN(CC=C)[C@@H](Cc1ccc(O)cc1)C(=O)*; Aib = CC(C)(N)C(=O)O"}
{"molecule": "Oc1ccc2c3c1O[C@H]1c4oc5ccccc5c4C[C@@]4(O)[C@@H](C2)N(CC2CC2)CC[C@]314", "note": "[NTB]", "values": [{"measurement": "ethanol drinking and water intake", "setting": "[1]", "value": "unexpectedly prolonged suppression of ethanol drinking without altering water intake"}]}
{"molecule": "7-(4',5'-Benz-2'-spiroindano)naltrexone and 7-(6',7'-Benz-2'-spiroindano)naltrexone [Compound 3e]", "values": [{"measurement": "MVD Agonism % Inhibition", "setting": "[2]", "value": 15.6, "unit": "%"}, {"measurement": "GPI Agonism % Inhibition", "setting": "[3]; [11]", "value": 20.3, "unit": "%"}]}
{"molecule": "O=C1[C@@H]2Oc3c(O)ccc4c3[C@@]23CCN(CC2CC2)[C@H](C4)[C@]3(O)CC12Cc1cccc3cccc(c13)C2", "note": "[Compound 3f, 7-(2',3'-Dihydro-2'-spiroperinaphtheno)naltrexone]", "values": [{"measurement": "GPI Antagonism IC50 Ratio (EK)", "setting": "[4]", "value": 0.39}, {"measurement": "inhibition at 1 µM", "setting": "[2]", "value": 13, "unit": "%"}, {"measurement": "GPI Antagonism IC50 Ratio (Morphine)", "setting": "[5]", "value": 0.89}, {"measurement": "inhibition at 1 µM", "setting": "[3]; Cavia porcellus, GPI, % Inhibition at 1000 nM (footnote 4), read-out: GPI Agonism % Inhibition", "value": 16, "unit": "%"}, {"measurement": "MVD Antagonism IC50 Ratio (DADLE)", "setting": "[6]", "value": 8}, {"measurement": "Kb", "setting": "[6]", "value": 14.9, "unit": "nM"}]}
{"molecule": "7-(4,-Methoxy-2,-spiroindano)naltrexone and 7-(7' -Methoxy-2'-spiroindano)-naltrexone [Compound 3b]", "values": [{"measurement": "MVD Agonism % Inhibition", "setting": "[2]", "value": 23.1, "unit": "%"}, {"measurement": "Kb", "setting": "[5]", "value": 13.4, "unit": "nM"}, {"measurement": "GPI Agonism % Inhibition", "setting": "[3]; [11]", "value": -15.0, "unit": "%"}]}
{"molecule": "O=C1[C@@H]2Oc3c(O)ccc4c3[C@@]23CCN(CC2CC2)[C@H](C4)[C@]3(O)CC12Cc1cc3ccccc3cc1C2", "note": "[Compound 3d, 7-(5',6'-Benz-2'-spiroindano)naltrexone]", "values": [{"measurement": "GPI Antagonism IC50 Ratio (EK)", "setting": "[4]", "value": 0.18}, {"measurement": "inhibition at 1 µM", "setting": "[2]", "value": 15.4, "unit": "%"}, {"measurement": "GPI Antagonism IC50 Ratio (Morphine)", "setting": "[5]", "value": 0.97}, {"measurement": "agonist activity for μ-receptors (in words)", "setting": "[3]", "value": "potent agonist activity"}, {"measurement": "IC50", "setting": "[3]; Cavia porcellus, read-out: GPI Agonism IC50", "value": 253, "unit": "nM"}, {"measurement": "GPI Agonism Potency (relative to morphine)", "setting": "[3]; GPI, morphine = 1", "value": 0.47}, {"measurement": "MVD Antagonism IC50 Ratio (DADLE)", "setting": "[6]", "value": 428}, {"measurement": "Kb", "setting": "[6]", "value": 0.234, "unit": "nM"}, {"measurement": "δ-antagonist activity (in words)", "setting": "[6]", "value": "most potent antagonist"}]}
{"molecule": "O=C1[C@@H]2Oc3c(O)ccc4c3[C@@]23CCN(CC2CC2)[C@H](C4)[C@]3(O)CC12Cc1ccccc1C2", "note": "[Compound 3a]", "values": [{"measurement": "Kb", "setting": "[5]", "value": 41, "unit": "nM"}, {"measurement": "Kb", "setting": "[6]", "value": 0.78, "unit": "nM"}, {"measurement": "δ-antagonist activity (in words)", "setting": "[6]", "value": "potent δ-antagonist activity"}]}
{"molecule": "7-(5'-Methoxy-2'-spiroindano)naltrexone and 7-(6'-Methoxy-2'-spiroindano)naltrexone [Compound 3c]", "values": [{"measurement": "MVD Agonism % Inhibition", "setting": "[2]", "value": 10.5, "unit": "%"}, {"measurement": "GPI Agonism % Inhibition", "setting": "[3]; [11]", "value": -8.8, "unit": "%"}]}
{"molecule": "O=C1CC[C@@]2(O)[C@H]3Cc4ccc(O)c5c4[C@@]2(CCN3CC2CC2)[C@H]1O5", "note": "[naltrexone]", "values": [{"measurement": "incidence of relapse in recovering alcoholics", "setting": "[7]", "value": "reduce the incidence of relapse in recovering alcoholics"}]}
{"molecule": "C=CCN(CC=C)[C@@H](Cc1ccc(O)cc1)C(=O)NC(C)(C)C(=O)NC(C)(C)C(=O)N[C@@H](Cc1ccccc1)C(=O)N[C@@H](CC(C)C)C(=O)O", "note": "[ICI 174864, N,N-diallyl-Tyr-Aib-Aib-Phe-Leu-OH] ({Tyr(Nα,Nα-allyl2)}-[Aib][Aib]FL-OH)", "values": [{"measurement": "duration of action", "setting": "[8]", "value": "very short duration of action"}, {"measurement": "ethanol drinking", "setting": "[8]", "value": "strongly inhibits ethanol drinking"}]}
{"molecule": "C=CCN1CC[C@]23c4c5ccc(O)c4O[C@H]2C(=O)CC[C@@]3(O)[C@H]1C5", "note": "[Naloxone]", "values": [{"measurement": "ethanol and water intake", "setting": "[9]", "value": "suppress ethanol but not water intake"}]}
{"molecule": "Oc1ccc2c3c1O[C@H]1c4[nH]c5ccccc5c4C[C@@]4(O)[C@@H](C2)N(CC2CC2)CC[C@]314", "note": "[NTI, naltrindole]", "values": [{"measurement": "selectivity and potency at delta receptors", "setting": "[10]", "value": "highly selective"}, {"measurement": "ethanol drinking and water intake", "setting": "[1]", "value": "unexpectedly prolonged suppression of ethanol drinking without altering water intake"}]}
